Laboratory results as given in PMC12169614, “Exploring Long Arm Amide-Linked Side Chains in the Design of Antifungal Azole Inhibitors of Sterol 14α-Demethylase (CYP51)” (Journal of Medicinal Chemistry, 2025).

Columns and labels:
Y525 OE CaMDR1a = experiment: MIC80 determination, strain Y525; format: cell-based, S. cerevisiae
How it was run: (§1)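 Cells were seeded at OD600 0.005 (1.5 × 10^4 CFU) and incubated at 30 °C with 200 rpm shaking, 48 h for S. cerevisiae strains and 24 h for C. albicans. Growth was read as OD600. MIC80 came from triplicate measurements on pools of 4 clones per strain across three experiments.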

[1] = tested on: Y2411 azole sensitive control strain; experiment: Agarose (disk) diffusion assay, strain Y2411; format: cell-based, S. cerevisiae; conditions: 10 nmol/disk, 30 °C, 48 h
From the text: (§2) Final compounds were screened as racemic mixtures using agarose diffusion assays to visualize their inhibitory activity against a panel of recombinant S. cerevisiae strains i.e., S. cerevisiae strains expressing control levels of wild-type CYP51 (ScCYP51), overexpressed wild-type ScCYP51, overexpressed azole-resistant ScCYP51 Y140F/H mutations and overexpressed C. albicans efflux pumps MDR1a or CDR1B (Figure and Table S1).
(§3) The susceptibilities of S. cerevisiae and Candida species strains to azole compounds were observed as zones of growth inhibition in agarose diffusion assays. The disk diffusion assays were carried out as described by Keniya et al. Complete supplement mixture (CSM) agarose (0.6% agarose [wt/vol]; 20 mL of synthetic defined medium (SD); pH 6.8–7) was solidified in a rectangular Petri dish which was overlaid with CSM agarose (0.6% [wt/vol]; 5 mL; pH 6.8–7) seeded with yeast cells at an optical density (OD600) of 0.008 (118,000 cells per 1 mL of overlay). Azole compounds (10 nmol/disk) were applied to sterile BBL paper disks (Becton Dickinson Co., Sparks, MD) and placed on solidified overlays. Cell growth was assessed after incubation at 30 °C for 48 h.

Y2651 OE CYP51 F5 RaCPR = experiment: MIC80 determination, strain Y2651; format: cell-based, S. cerevisiae; conditions: Saccharomyces cerevisiae
How it was run: as §1

MCF-10A cells = experiment: Viability (CellTiter Blue) assay; format: cell-based, human; conditions: 48 h, 10 μM to 1 pM
Experimental: Human epithelial breast cells, MCF-10A, were routinely cultured in DMEM/F-12 (Fisher Scientific, Loughborough, UK) containing 5% heat-inactivated horse serum (ThermoFisher Scientific, UK), 20 ng/mL hEGF (Merck Life Science, Dorset, UK), 500 ng/mL hydrocortisone (Merck Life Science, Dorset, UK) and 10 μg/mL insulin (Merck Life Science, Dorset, UK) under tissue culture conditions (37 °C, 5% CO2 in a humidified incubator). Cells were passaged upon reaching confluency using 0.25% Trypsin/EDTA (Fisher Scientific, Loughborough, UK) for a maximum of 15 passages from defrosting. […].
Cells were seeded in 100 μL of complete medium per well in a black, flat-bottomed, 96-well tissue-culture-treated plate (Fisher Scientific, Loughborough, UK) at a density of 4000 cells/well and incubated under tissue culture conditions for 24 h. Cells were then treated by mixing in an additional 100 μL of drug/diluent control in complete medium to give final concentrations of 10 μM–1 pM. DMSO was used as a vehicle control, and as a positive toxic control, staurosporine was added at a final concentration of 10 μM. Cells were then incubated for 48 h under tissue culture conditions before the treatments were replaced with fresh media before performing the CellTiter Blue assay (Promega, Southampton, UK) was performed following the manufacturer's instructions. […]

Y2716 OE CpCYP51 Y132F = experiment: MIC80 determination, strain Y2716; format: cell-based, S. cerevisiae
How it was run: as §1

Y2300 OE ScCYP51 = experiment: MIC80 determination, strain Y2300; format: cell-based, S. cerevisiae; conditions: Saccharomyces cerevisiae
How it was run: as §1

2711 CnCYP51 OE CnCPR = experiment: MIC80 determination, strain 2711; format: cell-based, S. cerevisiae
How it was run: as §1

[2] = tested on: Y2747 OE AfCYP51B AfCPR AfERG6; experiment: MIC80 determination, strain Y2747; format: cell-based, S. cerevisiae
How it was run: as §1

CYP3A4 = CYP3A4 (Homo sapiens, UniProt P08684); experiment: CYP IC50 profile, CYP3A4; format: biochemical; conditions: human liver drug metabolizing enzyme; read-out: CYP IC50 3A4
Sequence of CYP3A4 (P08684 whole entry): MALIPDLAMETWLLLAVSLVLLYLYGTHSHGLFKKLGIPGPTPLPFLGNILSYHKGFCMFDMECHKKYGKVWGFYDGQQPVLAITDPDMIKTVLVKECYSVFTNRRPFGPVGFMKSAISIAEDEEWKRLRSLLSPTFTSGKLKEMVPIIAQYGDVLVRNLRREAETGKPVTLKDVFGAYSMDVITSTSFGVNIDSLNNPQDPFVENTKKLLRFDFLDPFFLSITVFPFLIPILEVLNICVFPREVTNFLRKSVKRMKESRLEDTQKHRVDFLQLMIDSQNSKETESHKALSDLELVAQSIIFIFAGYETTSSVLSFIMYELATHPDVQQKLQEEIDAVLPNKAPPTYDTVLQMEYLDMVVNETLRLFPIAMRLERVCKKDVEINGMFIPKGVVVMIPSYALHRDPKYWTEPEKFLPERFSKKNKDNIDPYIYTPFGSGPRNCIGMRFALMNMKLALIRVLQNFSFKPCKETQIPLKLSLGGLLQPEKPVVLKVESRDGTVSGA

Y2459 OE CaCYP51 CaCpr = experiment: MIC80 determination, strain Y2459; format: cell-based, S. cerevisiae
How it was run: as §1

[3] = tested on: Y2746 OE AfCYP51A AfCPR AfERG6; experiment: MIC80 determination, strain Y2746; format: cell-based, S. cerevisiae; conditions: Saccharomyces cerevisiae
How it was run: as §1

[4] = tested on: Y2513 ScCYP51 Y140H mutant; experiment: Agarose (disk) diffusion assay, strain Y2513; format: cell-based, S. cerevisiae; conditions: 10 nmol/disk, 30 °C, 48 h
From the text: as §2, §3

Y611 FHB3 = experiment: MIC80 determination, C. albicans clinical isolate Y611 FHB3; format: cell-based; conditions: Candida albicans, 24 h, pH 7
How it was run: as §1

Y2649 OE CYP51 F1 RaCPR = experiment: MIC80 determination, strain Y2649; format: cell-based, S. cerevisiae
How it was run: as §1

Y570 OE CaCDR1B = experiment: MIC80 determination, strain Y570; format: cell-based, S. cerevisiae
How it was run: as §1

Y610 FHB1 = experiment: MIC80 determination, C. albicans clinical isolate Y610 FHB1; format: cell-based; conditions: Candida albicans; C. albicans clinical isolate Y610 FHB1 (weakly expresses CaCDR1); pH 7, 24 h
How it was run: as §1

Y2411 Endog. ScCYP51 = experiment: MIC80 determination, strain Y2411; format: cell-based, S. cerevisiae; conditions: Saccharomyces cerevisiae
How it was run: as §1

Y1 = experiment: MIC80 determination, C. albicans clinical isolate Y1; format: cell-based; conditions: Candida albicans, pH 7, 24 h
How it was run: as §1

Y2769 OE CauCYP51 K143R = experiment: MIC80 determination, strain Y2769; format: cell-based, S. cerevisiae
Experimental: Cells were seeded at an OD600 nm of 0.005 (1.5 × 10^4 CFU), and the plates were incubated at 30 °C with shaking at 200 rpm for 48 h for S. cerevisiae strains and 24 h for C. albicans . Cell growth was assessed by measuring the OD600 nm using a Synergy 2 multimode plate reader (BioTek Instruments, VT, USA). Each MIC80 was determined using triplicate measurements for pools of 4 clones of each strain in three separate experiments.

[5] = Saccharomyces cerevisiae, 48 h, pH 6.8

What does the source list for O=C(NCC(O)(Cn1cncn1)c1ccc(F)cc1F)c1ccc(-c2ccc(OC(F)(F)F)cc2)cc1 (centres unmarked) [Compound 22, N-(2-(2,4-Difluorophenyl)-2-hydroxy-3-(1H-1,2,4-triazol-1-yl)propyl)-4’-(trifluoromethoxy)-[1,1’-biphenyl]-4-carboxamide]?
MIC80 (Y525 OE CaMDR1a; [5]): 0.451 µM; MIC (Y525 OE CaMDR1a; read-out: MIC (nM) C. albicans model Y525): 451 nM; zone of growth inhibition (inhibitory activity in words) [1]: high potency; MIC80 (Y2651 OE CYP51 F5 RaCPR): 1.36 ± 0.907 µM; cell viability (tolerance in words) (MCF-10A cells): very well tolerated; increase in resistance owing to the CpCYP51 Y132F mutation (Y2716 OE CpCYP51 Y132F; MIC80 Y2716 versus Y2721): 2 fold; MIC80 (Y2716 OE CpCYP51 Y132F; Saccharomyces cerevisiae): 0.21 ± 0.043 µM; MIC80 (Y2300 OE ScCYP51; 48 h, pH 6.8): 0.114 ± 0.014 µM; MIC (Y2300 OE ScCYP51; read-out: MIC (nM) S. cerevisiae Y2300): 114 ± 14 nM; MIC80 (2711 CnCYP51 OE CnCPR; Saccharomyces cerevisiae): 0.018 µM; MIC (2711 CnCYP51 OE CnCPR; read-out: MIC (nM) C. neoformans model Y2711): 18 nM; MIC ([2]; Aspergillus fumigatus, read-out: MIC (nM) A. fumigatus model Y2747): 72 ± 29 nM; MIC80 ([2]; Saccharomyces cerevisiae): 0.072 ± 0.029 µM; IC50 (CYP3A4): 1.62 ± 0.23 µM; MIC80 (Y2459 OE CaCYP51 CaCpr; [5]): 0.054 ± 0.022 µM; MIC (Y2459 OE CaCYP51 CaCpr; read-out: MIC (nM) C. albicans model Y2459): 54 ± 22 nM; MIC80 [3]: 12.4 µM; zone of growth inhibition (inhibitory activity in words) [4]: unaffected inhibition zone size; MIC80 (Y611 FHB3): 1.65 µM; MIC (Y2649 OE CYP51 F1 RaCPR; Rhizopus arrhizus, read-out: MIC (nM) R. arrhizus model Y2649): 470 ± 240 nM; MIC80 (Y2649 OE CYP51 F1 RaCPR; Saccharomyces cerevisiae): 0.47 ± 0.24 µM; MIC (Y570 OE CaCDR1B; Candida albicans, read-out: MIC (nM) C. albicans model Y570): 5800 nM; MIC80 (Y570 OE CaCDR1B; [5]): 5.8 µM; MIC80 (Y610 FHB1): 0.153 ± 0.067 µM; MIC80 (Y2411 Endog. ScCYP51; strain Y2411 Endog. ScCYP51, SD pH 6.8, 30 °C, 48 h): 0.03 ± 0.023 µM; MIC (Y2411 Endog. ScCYP51; supplement csv, read-out: MIC (nM) S. cerevisiae Y2411): 30 ± 23 nM; MIC80 (Y1): 0.067 µM; MIC (Y2769 OE CauCYP51 K143R; Candidozyma auris, read-out: MIC (nM) C. auris model Y2769): 225 ± 33 nM; MIC80 (Y2769 OE CauCYP51 K143R; Saccharomyces cerevisiae): 0.225 ± 0.033 µM
